The results in this text go back to ChEMBL document CHEMBL3124782, “MHY884, a newly synthesized tyrosinase inhibitor, suppresses UVB-induced activation of NF-κB signaling pathway through the downregulation of oxidative stress” (Bioorg Med Chem Lett, 2014).

Test [1] has as its system Mus musculus. In words: Antioxidant activity in UVB-irradiated melanin-possessing hairless mouse assessed as inhibition of p65 NF-kappaB phosphorylation at Ser536 residue in skin homogenate at 2 to 10 uM treated topically to dorsal skin once a day for 21 days concomitantly irradiated with UV-B on alternate days from day 2 post-treatment by Western blot method. It is filed as functional, organism-based.

Test [2] concerns Mus musculus. The test is described as follows: Antioxidant activity in melanin-possessing hairless mouse assessed as inhibition of UVB-induced peroxynitrite generation in skin homogenate compound treated topically to dorsal skin once a day for 21 days concomitantly irradiated with UV-B on alternate days from day 2 post-treatment by DHR 123 assay. It is filed as functional, organism-based.

For test [3], the system named is Mus musculus. The test is described as follows: Antioxidant activity in melanin-possessing hairless mouse assessed as inhibition of UVB-induced ROS generation in skin homogenate compound treated topically to dorsal skin once a day for 21 days concomitantly irradiated with UV-B on alternate days from day 2 post-treatment by DCFDA assay. Format: functional, organism-based.

In test [4] the test system is Mus musculus. The test is described as follows: Antioxidant activity in UVB-irradiated melanin-possessing hairless mouse assessed as inhibition of nuclear translocation of p-p65 NF-kappaB Ser 536 in skin homogenate at 2 to 10 uM treated topically to dorsal skin once a day for 21 days concomitantly irradiated with UV-B on alternate days from day 2 post-treatment by Western blot method. Format: functional, organism-based.

Test [5] concerns Mus musculus. In words: Antioxidant activity in UVB-irradiated melanin-possessing hairless mouse assessed as inhibition of AKT phosphorylation at Thr 308 and Ser473 residues in skin homogenate at 2 to 10 uM treated topically to dorsal skin once a day for 21 days concomitantly irradiated with UV-B on alternate days from day 2 post-treatment by Western blot method. Format: functional, organism-based.

The subject of test [6] is Mus musculus. In words: Antioxidant activity in UVB-irradiated melanin-possessing hairless mouse assessed as inhibition of NF-kappaB-mediated COX-2 expression in skin homogenate at 2 to 10 uM treated topically to dorsal skin once a day for 21 days concomitantly irradiated with UV-B on alternate days from day 2 post-treatment by Western blot method. It is filed as functional, organism-based.

Test [7] concerns B16-F10. In words: Inhibition of oxidative stress in mouse B16F10 cells assessed as SIN-1-induced ROS generation pretreated for 2 hrs followed by washout before SIN-1 challenge. It is filed as functional, cell-based.
Test [8] has as its system Mus musculus. The test is described as follows: Antioxidant activity in UVB-irradiated melanin-possessing hairless mouse assessed as inhibition of NF-kappaB-mediated iNOS expression in skin homogenate at 2 to 10 uM treated topically to dorsal skin once a day for 21 days concomitantly irradiated with UV-B on alternate days from day 2 post-treatment by Western blot method. Format: functional, organism-based.

Test [9] concerns Mus musculus. The test is described as follows: Antioxidant activity in UVB-irradiated melanin-possessing hairless mouse assessed as effect on GSH/GSSG ratio in skin homogenate at 2 to 10 uM treated topically to dorsal skin once a day for 21 days concomitantly irradiated with UV-B on alternate days from day 2 post-treatment by o-phthalaldehyde assay. It is filed as functional, organism-based.

The nature of test [10]: Antioxidant activity assessed as peroxynitrite scavenging activity at 1 to 10 uM by DHR 123 assay. It is filed as functional.
Test [11] in a line: Antioxidant activity assessed as ROS scavenging activity at 1 to 10 uM by DCFDA assay. It is filed as functional.
Test [12] relates to Mus musculus. The test is described as follows: Antioxidant activity in UVB-irradiated melanin-possessing hairless mouse assessed as inhibition of AKT-mediated IKKalphabeta phosphorylation at Ser176/180 residues in skin homogenate at 2 to 10 uM treated topically to dorsal skin once a day for 21 days concomitantly irradiated with UV-B on alternate days from day 2 post-treatment by Western blot method. It is filed as functional, organism-based.

The subject of test [13] is B16-F10. In words: Inhibition of oxidative stress in mouse B16F10 cells assessed as SIN-1-induced peroxynitrite generation pretreated for 2 hrs followed by washout before SIN-1 challenge. Format: functional, cell-based.

Active and inactive are the calls of the source. The rule behind the calls is not given here.

On to `COc1cc(C2Nc3cc(Cl)ccc3S2)cc(OC)c1O` (stereo not given), for which the inhibition result in the test on Mus musculus [1], in the test with Mus musculus [4], in the test on Mus musculus [5], in the test with Mus musculus [6], with Mus musculus [8] and in the test with Mus musculus [12] was “Active” each time. The inhibition result with Mus musculus [2], in the test on Mus musculus [3], with B16-F10 [7] and in the test with B16-F10 [13] was “Dose-dependent effect” in each case. In the test on Mus musculus [9], the result was inactive. Further, the result in [10] and in test [11] was Active.
Consider `CC(C)(S)[C@@H](N)C(=O)O`, for which, in test [10], the outcome was Active.
Consider `Cc1c(C)c2c(c(C)c1O)CCC(C)(C(=O)O)O2` (stereo not given), for which the result in test [11] was Active.
